In the NIST ThermoML archive (doi:10.1016/j.jct.2016.12.031):
Numbers after ± are expanded uncertainties.

Conditions: Crystal; visual observation

Normal melting temperature [°C] | SMILES
300.00 ± 1.1 | Cc1cc2nc3cc(C)c(N)cc3[n+](-c3ccccc3)c2cc1N.[Cl-] [Safranine O]
160.00 ± 1.1 | CN(C)c1ccc(C(=C2C=CC(=[N+](C)C)C=C2)c2ccccc2)cc1.CN(C)c1ccc(C(=C2C=CC(=[N+](C)C)C=C2)c2ccccc2)cc1.O=C(O)C(=O)O.O=C([O-])C(=O)O.O=C([O-])C(=O)O [Malachite green oxalate]
